pIC50: −log10 of the molar value.

In the assay the target is T1, KCNT1 (KNa1.1, Slack) (Homo sapiens, UniProt Q5JUK3).
T1 construct: expressed in transfected cells; host or cells: HEK-TREX (tetracycline inducible cell line)
T1 sequence (Q5JUK3 1-1230): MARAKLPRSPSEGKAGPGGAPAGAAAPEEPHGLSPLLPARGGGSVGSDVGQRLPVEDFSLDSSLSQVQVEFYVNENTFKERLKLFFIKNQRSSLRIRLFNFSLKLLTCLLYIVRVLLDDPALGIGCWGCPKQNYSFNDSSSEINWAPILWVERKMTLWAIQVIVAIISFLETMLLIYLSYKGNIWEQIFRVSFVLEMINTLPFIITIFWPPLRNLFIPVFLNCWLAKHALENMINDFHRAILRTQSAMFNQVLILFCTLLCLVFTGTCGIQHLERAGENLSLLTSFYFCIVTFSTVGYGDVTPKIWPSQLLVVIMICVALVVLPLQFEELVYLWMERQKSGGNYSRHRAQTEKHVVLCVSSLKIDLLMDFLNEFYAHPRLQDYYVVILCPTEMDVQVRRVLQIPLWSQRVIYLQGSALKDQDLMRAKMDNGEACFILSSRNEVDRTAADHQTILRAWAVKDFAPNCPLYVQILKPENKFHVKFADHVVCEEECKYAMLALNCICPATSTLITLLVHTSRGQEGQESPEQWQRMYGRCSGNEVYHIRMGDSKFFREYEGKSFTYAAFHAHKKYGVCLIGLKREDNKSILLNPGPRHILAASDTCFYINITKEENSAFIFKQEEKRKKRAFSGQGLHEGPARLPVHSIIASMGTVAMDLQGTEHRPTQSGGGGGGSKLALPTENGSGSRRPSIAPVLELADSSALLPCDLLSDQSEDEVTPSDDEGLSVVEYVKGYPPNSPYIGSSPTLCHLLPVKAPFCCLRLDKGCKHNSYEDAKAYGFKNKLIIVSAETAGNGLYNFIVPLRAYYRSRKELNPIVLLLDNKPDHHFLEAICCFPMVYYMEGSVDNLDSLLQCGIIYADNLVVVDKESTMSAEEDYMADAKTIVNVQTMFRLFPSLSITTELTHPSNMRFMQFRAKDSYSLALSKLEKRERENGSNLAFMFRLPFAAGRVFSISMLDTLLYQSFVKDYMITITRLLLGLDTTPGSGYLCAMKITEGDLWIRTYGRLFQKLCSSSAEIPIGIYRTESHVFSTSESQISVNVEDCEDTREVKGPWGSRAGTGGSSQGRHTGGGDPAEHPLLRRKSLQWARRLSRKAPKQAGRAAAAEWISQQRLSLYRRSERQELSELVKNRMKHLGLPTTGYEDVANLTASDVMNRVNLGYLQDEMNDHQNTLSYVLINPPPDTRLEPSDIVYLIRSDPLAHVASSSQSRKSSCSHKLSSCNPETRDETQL
In words: KCNT1-WT-Basal-Patch Clamp Assay. Type of assay: cell-based. Conditions: tetracycline inducible cell line (HEK-TREX), SyncroPatch 384PE automated patch clamp, perforated patch, holding -80 mV with step to 0 mV, room temperature. The protocol: KCNT1-WT-Basal-Patch Clamp Assay
Inhibition of KCNT1 (KNa1.1, Slack) was evaluated using a tetracycline inducible cell line (HEK-TREX). Currents were recorded using the SyncroPatch 384PE automated, patch clamp system. Pulse generation and data collection were performed with PatchController384 V1.3.0 and DataController384 V1.2.1 (Nanion Technologies). The access resistance and apparent membrane capacitance were estimated using built-in protocols. Current were recorded in perforated patch mode (10 μM escin) from a population of cells. The cells were lifted, triturated, and resuspended at 800,000 cells/ml. The cells were allowed to recover in the cell hotel prior to experimentation. Currents were recorded at room temperature. The external solution contained the following (in mM): NaCl 105, NMDG 40, KCl 4, MgCl2 1, CaCl2 5 and HEPES 10 (pH=7.4, Osmolarity ˜300 mOsm). The extracellular solution was used as the wash, reference and compound delivery solution. The internal solution contained the following (in mM): NaCl 70, KF 70, KCl 10, EGTA 5, HEPES 5 and Escin 0.01 (pH=7.2, Osmolarity ˜295 mOsm). Escin is made at a 5 mM stock in water, aliquoted, and stored at −20° C. The compound plate was created at 2× concentrated in the extracellular solution. The compound was diluted to 1:2 when added to the recording well. The amount of DMSO in the extracellular solution was held constant at the level used for the highest tested concentration. A holding potential of −80 mV with a 100 ms step to 0 mV was used. Mean current was measured during the step to 0 mV. […] The average mean current from 3 sweeps was calculated and the % inhibition of each compound was calculated. The % Inhibition as a function of the compound concentration was fit with a Hill equation to derive IC50, slope, min and max parameters. If KCNT1 inhibition was less than 50% at the highest tested concentration or if an IC50 could not be calculated, then a percent inhibition was reported in place of the IC50. In this table, “A” indicates IC50 of less than or equal to 1 μM; “B” indicates inhibition of between 1 μM to 20 μM; and “C” indicates inhibition of greater than or equal to 20 μM.
As usually defined, the pIC50 is −log10 of the IC50, conventionally taken in molar units. Compound `CC(C(=O)N[C@H](C)c1ccccc1)c1nc(-c2ccnc(C3CC3)c2)no1` (stereo partly drawn) [Compound 12, 2-(3-(2-cyclopropylpyridin-4-yl)-1,2,4-oxadiazol-5-yl)-N—((R)-1-phenylethyl)propanamide] had a negative-log IC50 (pIC50) of no less than 6.00.

In turn, `CC(C(=O)N[C@@H](C)c1ccccc1)c1nc(-c2ccnc(C3CC3)c2)no1` (stereo partly drawn) [Compound 11, 2-(3-(2-cyclopropylpyridin-4-yl)-1,2,4-oxadiazol-5-yl)-N—((S)-1-phenylethyl)propanamide] gave a negative logarithm of the IC50 (pIC50) of no less than 6.00.

`CC(C(=O)Nc1ccccc1)c1nc(-c2ccnc(C3CC3)c2)no1` (stereo not drawn) [Compound 1, 2-[3-(2-cyclopropyl-4-pyridyl)-1,2,4-oxadiazol-5-yl]-N-phenyl-propanamide]: the pIC50 was no less than 6.00.

Turning to `CC(C(=O)N1CCCCC1)c1nc(-c2ccnc(C3CC3)c2)no1` (stereo not drawn) [Compound 5, 2-(3-(2-cyclopropylpyridin-4-yl)-1,2,4-oxadiazol-5-yl)-1-(piperidin-1-yl)propan-1-one], the negative-log IC50 (pIC50) was 4.70 to 6.00.

As for `C[C@@H](C(=O)N1CCCCC1)c1nc(-c2ccnc(C3CC3)c2)no1` (single isomer, unassigned) [Compound 6], the negative logarithm of the IC50 (pIC50) was 4.70 to 6.00.

With `C[C@@H](C(=O)Nc1ccccc1)c1nc(-c2ccnc(C3CC3)c2)no1` (single isomer, unassigned) [Compound 8], the pIC50 was no less than 6.00.

The compound `C[C@H](C(=O)Nc1ccccc1)c1nc(-c2ccnc(C3CC3)c2)no1` (single isomer, unassigned) [Compound 9] gave a negative logarithm of the IC50 (pIC50) of no less than 6.00.

In turn, `CC(C(=O)NCc1ccccc1)c1nc(-c2ccnc(C3CC3)c2)no1` (stereo not drawn) [Compound 2, N-benzyl-2-(3-(2-cyclopropylpyridin-4-yl)-1,2,4-oxadiazol-5-yl)propanamide] had a negative-log IC50 (pIC50) of no less than 6.00.

The compound `C[C@@H](C(=O)NC1CCCCC1)c1nc(-c2ccnc(C3CC3)c2)no1` (single isomer, unassigned) [Compound 3] had a pIC50 of no less than 6.00.

With `C[C@H](C(=O)N1CCCCC1)c1nc(-c2ccnc(C3CC3)c2)no1` (single isomer, unassigned) [Compound 7], the pIC50 is no more than 4.70.

Consider `CC(C(=O)N(C)c1ccccc1)c1nc(-c2ccnc(C3CC3)c2)no1` (stereo not drawn) [Compound 10, -[3-(2-cyclopropyl-4-pyridyl)-1,2,4-oxadiazol-5-yl]-N-methyl-N-phenyl-propanamide], for which the negative-log IC50 (pIC50) was 4.70 to 6.00.

Take `C[C@H](C(=O)NC1CCCCC1)c1nc(-c2ccnc(C3CC3)c2)no1` (single isomer, unassigned) [Compound 4]: the pIC50 is no less than 6.00.
